Results as given in patent publication US20240124456A1, “AZA-ERGOLINE DERIVATIVE AND PREPARATION METHOD THEREFOR AND APPLICATION THEREOF” (SHANGHAITECH UNIVERSITY, priority 2021, published 2024).
Each block holds one compound with its values, some of them ahead of it.

How the values were obtained:
5-HT2A receptor [1] = molecular target: T1, 5-HT2A receptor (Homo sapiens (Human), UniProt P28223); test: Radioligand competition binding, affinity for 5-HT2A receptor ([3H]-ketanserin)
Experimental: The affinity of the compounds of the present invention for the 5-HT2A receptors was determined by the method of radioligand competition experiment. In the first step, a cell membrane component containing specific 5-HT2A receptor was prepared. A 10 cm dish was used for transfection with 10 ng of the 5-HT2A receptor and 40 μL of PEI. […] A vacuum pump was used to suck off the culture medium, 3 mL of lysis buffer was added to each well, and the cells were placed in a 4° C. freezer for 10 minutes. After the cells were detached, the cells were transferred to a 15 mL centrifuge tube and centrifuged at 1500 rpm for 5 minutes at 4° C., and the supernatant was discarded. The cell pellet was transferred to a tissue homogenizer, and 3 mL of lysis buffer was added and fully ground until the cells were broken. Then, cell suspension was equally divided into several EP tubes, centrifuged at 4° C. and 12000 rpm for 5 min, and the supernatant was discarded. The precipitate was the cell membrane component containing the 5-HT2A receptor. […] First, a standard binding buffer was added to the cell membrane component containing the 5-HT2A receptor, and the cell membrane was disrupted and resuspended with an electric tissue homogenizer. 30 μL of membrane protein suspension was added to each well of a 96-well plate. Then, 30 μL of different drugs were added to the 96-well plate from left to right to ensure that the final drug concentrations were 10^−5 M, 10^−6 M, 10^−7 M, 10^−8 M, 10^−9 M and 0 M, with two replicates per treatment. Next, 30 μL [^3H]-ketanserin was added to each well of the 96-well plate. The plate was incubated for 2 hours at room temperature in the dark. Detection. The machine reading value reflected the amount of [^3H]-ketanserin bound on the membrane, and after further data processing, the affinity Ki value of different compounds for 5-HT2A receptor was obtained.

dopamine D2 receptors [2] = molecular target: T2, dopamine D2 receptors (Homo sapiens (Human), UniProt P14416); test: β-arrestin2 recruitment BRET, dopamine D2 receptor functional activity; type: cell-based
T2 sequence (P14416 whole entry, the tested form may be a part): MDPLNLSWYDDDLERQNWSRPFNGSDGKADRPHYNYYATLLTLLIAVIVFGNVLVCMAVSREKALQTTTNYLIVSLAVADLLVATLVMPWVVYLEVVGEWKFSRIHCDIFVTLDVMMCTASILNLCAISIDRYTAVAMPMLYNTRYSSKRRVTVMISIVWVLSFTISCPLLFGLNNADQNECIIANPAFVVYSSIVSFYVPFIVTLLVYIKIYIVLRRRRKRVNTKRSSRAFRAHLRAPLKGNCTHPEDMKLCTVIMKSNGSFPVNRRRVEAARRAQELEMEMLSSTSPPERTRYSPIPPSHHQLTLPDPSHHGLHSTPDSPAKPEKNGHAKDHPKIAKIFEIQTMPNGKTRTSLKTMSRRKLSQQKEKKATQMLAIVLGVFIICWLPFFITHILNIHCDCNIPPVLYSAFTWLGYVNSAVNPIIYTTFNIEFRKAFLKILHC
Experimental: To examine the downstream f3-arrestin2 signaling pathway mediated by dopamine D2 receptors, 6 cm dish was used for transfection with 500 […] of dopamine D2 receptors fused to seaweed luciferase (D2-Rluc), 500 μg of G protein-coupled receptor kinase 2 (GRK2), 2500 μg of β-arrestin2 fused to green fluorescent protein (GFP2-ARRB2) and 14 μL of transfection reagent PEI. The next day, the overgrown cells were digested and plated a 96-well plate at the amount of cells contained in a 6 cm culture dish with overgrown cells, and 100 μL of culture medium was added to each well. On the third day, the drugs were added for test.
(§1) To examine downstream G-protein signaling pathway mediated by dopamine D2 receptors, on the first day, 6 cm dish was used for transfection with 1μg of dopamine D2 receptors, 1μg of Gαi1 containing C-terminal seaweed luciferase (GGαi1-Rluc), 1 μg of […], 1 μg of Gγ9 containing C-terminal green fluorescent protein (Gγ9-GFP) and 16 μL of PEI. At the same time, in order to examine the downstream f3-arrestin2 signaling pathway mediated by dopamine D2 receptors, on the first day, 6 cm dish was used for transfection with 500 μg of dopamine D2 receptors containing C-terminal seaweed luciferase (D2-Rluc), 500 μg of G protein-coupled receptor kinase 2 (GRK2), 2500 μg of […] containing N-terminal green fluorescent protein (GFP2-ARRB2) and 14 μL of PEI. The next day, the overgrown cells were digested and plated a 96-well plate at the amount of cells contained in a 6 cm culture dish with overgrown cells, and 100 μL of culture medium was added to each well. On the third day, the drugs were added for test. The 96-well plate was taken out from the cell culture room to remove the culture medium, 40 μL of the substrate coelenterazine 400a (final concentration of 5 μM) was added to each well, and then 20 μL of different drugs were added in turn from left to right to ensure that the final concentration of the drugs decreased gradually from bottom to top, and each treatment was repeated twice. Finally, the prepared samples were loaded on machine for test. The machine reading value reflected the intracellular β-arrestin2 on the membrane and the dissociation of G protein trimer. The former indicated the degree of activation of the β-arrestin2 signaling pathway downstream of the dopamine D2 receptors, and the latter indicated the degree of activation of the G protein signaling pathway downstream of the dopamine D2 receptors.

dopamine D2 receptors [3] = molecular target: T2, dopamine D2 receptors; test: G protein Gαi1-γ9 dissociation BRET, dopamine D2 receptor functional activity; type: cell-based
Experimental: To examine downstream G protein signaling mediated by dopamine D2 receptors, 6 cm dish was used for transfection with 1μg of dopamine D2 receptors, 1μg of Gαi1 fused to seaweed luciferase (Gαi1-Rluc), 1 μg of Gβ3, 1 μg of Gγ9 fused to green fluorescent protein (Gγ9-GFP) and 16 μL of transfection reagent PEI. […] On the third day, the drugs were added for test.
as §1

dopamine D2 receptors [4] = molecular target: T2, dopamine D2 receptors; test: Radioligand competition binding, affinity for dopamine D2 receptors ([3H]-Methylspiperone)
Experimental: A 10 cm diameter dish was used for transfection with 10 ng of the dopamine D2 receptors and 40 μL of PEI. After 48 hours, the 10 cm dish was taken out from the cell culture room and the cultured cells had expressed the dopamine D2 receptors. A vacuum pump was used to suck off the culture medium, 3 mL of lysis buffer (50 mM Tris hydrochloric acid buffer, pH 7.4) was added to each well, and the cells were placed in a 4° C. freezer for 10 minutes. After the cells were detached, the cells were transferred to a 15 mL centrifuge tube and centrifuged at 1500 rpm for 5 minutes at 4° C., and the supernatant was discarded. The cell pellet was transferred to a tissue homogenizer, and 3 mL of lysis buffer was added and fully ground until the cells were broken. Then, cell suspension was equally divided into several EP tubes, centrifuged at 4° C. and 12000 rpm for 5 min, and the supernatant was discarded. The precipitate was the cell membrane component containing the dopamine D2 receptors and stored at −80° C.
First, a standard binding buffer (50 mM HEPES, 50 mM NaCl, 5 mM MgCl2, 0.5 mM EDTA, pH 7.4) was added to the cell membrane component containing the dopamine D2 receptors, and the cell membrane was disrupted and resuspended with an electric tissue homogenizer. 30 μL of membrane protein suspension was added to each well of a 96-well plate. Then, 30 μL of different drugs were added to the 96-well plate from left to right to ensure that the final drug concentrations were 10^−5 M, 10^−6 M, 10^−7 M, 10^−8 M, 10^−9 M and 0 M, with two replicates per treatment. Next, 30 μL [^3H]-N-Methylspiperone was added to each well of the 96-well plate, and the plate was incubated for 2 hours at room temperature in the dark. The unbound isotopes were removed by Whatman GF/C filter membrane and vacuum pump, and the isotopes bound to the receptors were detected by MicroBeta isotope liquid scintillation counter.
The affinity of the compounds of the present invention for the dopamine D2 receptors was determined by the method of radioligand competition experiment. In the first step, a cell membrane component containing specific dopamine D2 receptors was prepared. A10 cm dish was used for transfection with 10 ng of the dopamine D2 receptors and 40 μL of PEI. After 48 hours, the 10 cm dish was taken out from the cell culture room and the cultured cells had expressed the dopamine D2 receptors. A vacuum pump was used to suck off the culture medium, 3 mL of lysis buffer was added to each well, and the cells were placed in a 4° C. freezer for 10 minutes. After the cells were detached, the cells were transferred to a 15 mL centrifuge tube and centrifuged at 1500 rpm for 5 minutes at 4° C., and the supernatant was discarded. The cell pellet was transferred to a tissue homogenizer, and 3 mL of lysis buffer was added and fully ground until the cells were broken. Then, cell suspension was equally divided into several EP tubes, centrifuged at 4° C. and 12000 rpm for 5 min, and the supernatant was discarded. The precipitate was the cell membrane component containing the dopamine D2 receptors. […] First, a standard binding buffer was added to the cell membrane component containing the dopamine D2 receptors, and the cell membrane was disrupted and resuspended with an electric tissue homogenizer. 30 μL of membrane protein suspension was added to each well of a 96-well plate. Then, 30 μL of different drugs were added to the 96-well plate from left to right to ensure that the final drug concentrations were 10^−5 M, 10^−6 M, 10^−7 M, 10^−8 M, 10^−9 M and 0 M, with two replicates per treatment. Next, 30 μL [^3H]-Methylspiperone was added to each well of the 96-well plate. The plate was incubated for 2 hours at room temperature in the dark. Detection. The machine reading value reflected the amount of [^3H]-Methylspiperone bound on the membrane, and after further data processing, the affinity Ki value of different compounds for dopamine D2 receptors was obtained.

C57B6 male mice = test: Freezing behavior test; type: in vivo; conditions: 10 mg/kg
Experimental: Experimental method: The experimental animals were C57B6 male mice, n=8 in each group. Mice were first injected with different compounds, and after a certain period of time (30 min or 60 min), the mice were in an upright and unnatural state by placing their forelimbs on a high glass hanging rod (about 5 cm from the ground). Then the time for the mice to maintain this state was measured, and the length of time was used to determine the freezing effect of the drug on the mice.

5-HT2A receptor [5] = molecular target: T1, 5-HT2A receptor; conditions: Blair, Drugs, 2020; cited from earlier work

T1 sequence (P28223 whole entry): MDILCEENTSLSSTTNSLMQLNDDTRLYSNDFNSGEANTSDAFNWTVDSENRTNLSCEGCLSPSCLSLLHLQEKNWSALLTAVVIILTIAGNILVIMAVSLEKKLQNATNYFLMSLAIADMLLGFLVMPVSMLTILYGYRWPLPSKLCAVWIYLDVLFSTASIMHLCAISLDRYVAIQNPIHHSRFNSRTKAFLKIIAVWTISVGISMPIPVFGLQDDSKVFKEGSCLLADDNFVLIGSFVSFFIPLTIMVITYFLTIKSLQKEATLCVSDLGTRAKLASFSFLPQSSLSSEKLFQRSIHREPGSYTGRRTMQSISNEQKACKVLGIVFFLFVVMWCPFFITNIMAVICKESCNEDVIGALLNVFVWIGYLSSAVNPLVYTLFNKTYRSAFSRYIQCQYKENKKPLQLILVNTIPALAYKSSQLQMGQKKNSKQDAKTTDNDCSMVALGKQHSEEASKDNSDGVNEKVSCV

SMILES: O=c1ccc2ccc(OCCCCN3CCN4c5cccc6[nH]cc(c56)CC4C3)cc2[nH]1 (stereo not drawn) [Compound I-2, 7-(4(4,6,6a,7,9,10-hexahydro-8H-pyrazino[1,2-a]pyrrolo[4,3,2-de]quinolin-8-yl)butoxy)quinolin-2(1H)-one]
- affinity for 5-HT2A receptor (in words) (5-HT2A receptor [1]): very weak affinity

SMILES: CN(C)C(=O)N[C@H]1CC[C@H](CCN2CCN3c4cccc5[nH]cc(c45)CC3C2)CC1 (stereo partly drawn) [Compound I-10, 3-(4-(2-(4,6,6a,7,9,10-hexahydro-8H-pyrazino[1,2-a]pyrrolo[4,3,2-de]quinolin-8-yl)ethyl)trans-cyclohexyl)-1,1-dimethylurea]
- affinity for 5-HT2A receptor (in words) (5-HT2A receptor [1]): very weak affinity
- Ki (5-HT2A receptor [1]; [3H]-ketanserin, HEK-293T membranes): 2.37 µM
- EC50 (dopamine D2 receptors [2]; HEK-293T, I-1 to 19 n=3, I-20 to 27 single determination, read-out: β-arrestin2 BRET EC50): 0.00661 µM
- Emax (dopamine D2 receptors [2]; read-out: β-arrestin2 BRET Emax % ± SEM): 84%
- EC50 (dopamine D2 receptors [3]; HEK-293T, I-1 to 19 n=3, I-20 to 27 single determination, read-out: Gai1 BRET EC50): 0.00389 µM
- Emax (dopamine D2 receptors [3]; read-out: Gai1 BRET Emax % ± SEM): 80%
- Affinity pKi ± SEM (dopamine D2 receptors [4]): (7.30 ± 0.08)
- Ki (dopamine D2 receptors [4]): 0.0506 µM

- Freezing time (C57B6 male mice; 30 minutes after administration): 61.05 ± 3.239 s
- Freezing time (C57B6 male mice; 60 minutes after administration): 53.19 ± 2.443 s
SMILES: O=C(CCCN1CCC(O)(c2ccc(Cl)cc2)CC1)c1ccc(F)cc1 [Haloperidol, reference compound]

SMILES: CN1CCN2c3c(cccc31)[C@@H]1CN(CCCC(=O)c3ccc(F)cc3)CC[C@@H]12 [Lumateperone]
- affinity for 5-HT2A receptors relative to that for D2 receptors (5-HT2A receptor [5]): about 60 times
